In one test the target is SHP1 (Homo sapiens, UniProt P29350). Kind of test: PTP inhibition assay (pNPP). In kind it is biochemical. The following applies: pNPP at Km, pH 7.0, 25° C.
The next test has as its target T1, SHP2 (Homo sapiens, UniProt Q06124).
T1 sequence (Q06124 224-528): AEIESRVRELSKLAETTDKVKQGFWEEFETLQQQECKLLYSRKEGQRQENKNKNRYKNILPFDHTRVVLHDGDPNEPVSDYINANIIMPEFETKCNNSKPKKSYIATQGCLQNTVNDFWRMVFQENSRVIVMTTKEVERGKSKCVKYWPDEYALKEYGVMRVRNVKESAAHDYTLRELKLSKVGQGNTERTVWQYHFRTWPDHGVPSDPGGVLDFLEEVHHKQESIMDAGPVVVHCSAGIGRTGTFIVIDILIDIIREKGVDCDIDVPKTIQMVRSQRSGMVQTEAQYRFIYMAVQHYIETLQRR
Kind of test: SHP2 phosphatase inhibition assay (pNPP). In kind it is biochemical. Conditions: pNPP at Km, pH 7.0, 25° C.; read-out: IC50 SHP2.

In the next test the target is TbPTP1 (Trypanosoma brucei brucei, UniProt Q38AT7). Kind of test: PTP inhibition assay (pNPP). Conditions: pH 7.0, 25° C. In kind it is biochemical.
Chain of TbPTP1 (Q38AT7 entry or part of it): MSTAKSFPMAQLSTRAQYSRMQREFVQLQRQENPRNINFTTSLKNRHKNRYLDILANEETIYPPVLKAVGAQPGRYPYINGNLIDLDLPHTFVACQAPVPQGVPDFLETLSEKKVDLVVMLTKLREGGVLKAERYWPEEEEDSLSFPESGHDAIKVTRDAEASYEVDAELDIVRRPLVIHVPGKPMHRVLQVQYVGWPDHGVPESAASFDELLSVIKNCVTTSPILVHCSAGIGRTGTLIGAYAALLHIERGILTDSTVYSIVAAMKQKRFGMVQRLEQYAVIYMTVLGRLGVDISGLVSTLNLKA
In another test the target is YopH (Yersinia enterocolitica, UniProt P15273). The test is described as follows: biochemical.
Chain of YopH (P15273 whole entry, looked up): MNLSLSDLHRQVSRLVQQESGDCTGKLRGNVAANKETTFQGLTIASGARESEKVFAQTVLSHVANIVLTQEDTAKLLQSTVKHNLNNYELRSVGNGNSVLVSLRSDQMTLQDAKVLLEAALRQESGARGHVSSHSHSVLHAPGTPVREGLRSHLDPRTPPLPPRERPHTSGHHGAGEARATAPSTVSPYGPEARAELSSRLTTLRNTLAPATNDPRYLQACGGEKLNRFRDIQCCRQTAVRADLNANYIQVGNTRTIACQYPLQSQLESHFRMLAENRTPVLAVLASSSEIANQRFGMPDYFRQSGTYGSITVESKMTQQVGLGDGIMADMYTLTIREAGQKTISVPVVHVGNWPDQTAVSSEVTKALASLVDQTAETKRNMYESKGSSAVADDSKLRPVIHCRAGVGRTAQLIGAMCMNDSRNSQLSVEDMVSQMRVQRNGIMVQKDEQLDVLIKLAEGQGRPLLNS
In the next test the target is T2, PP5 (Homo sapiens, UniProt P53041).
T2 sequence (P53041 1-499): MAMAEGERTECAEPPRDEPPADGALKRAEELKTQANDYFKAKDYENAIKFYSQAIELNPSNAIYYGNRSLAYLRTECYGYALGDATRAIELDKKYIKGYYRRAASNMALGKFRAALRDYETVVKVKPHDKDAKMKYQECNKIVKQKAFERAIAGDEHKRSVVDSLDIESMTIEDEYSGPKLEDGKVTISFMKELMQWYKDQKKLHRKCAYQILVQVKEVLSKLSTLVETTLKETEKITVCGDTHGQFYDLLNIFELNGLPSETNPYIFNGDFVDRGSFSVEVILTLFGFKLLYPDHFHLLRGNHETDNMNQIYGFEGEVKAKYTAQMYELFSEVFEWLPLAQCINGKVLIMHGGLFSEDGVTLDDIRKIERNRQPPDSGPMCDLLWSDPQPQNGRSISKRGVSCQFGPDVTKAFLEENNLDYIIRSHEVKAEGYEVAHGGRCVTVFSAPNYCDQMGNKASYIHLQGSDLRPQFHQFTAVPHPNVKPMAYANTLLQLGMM
Kind of test: Phosphatase inhibition assay (pNPP).

The target in another test is T3, PEST (Homo sapiens, UniProt Q05209).
T3 sequence (Q05209 1-780): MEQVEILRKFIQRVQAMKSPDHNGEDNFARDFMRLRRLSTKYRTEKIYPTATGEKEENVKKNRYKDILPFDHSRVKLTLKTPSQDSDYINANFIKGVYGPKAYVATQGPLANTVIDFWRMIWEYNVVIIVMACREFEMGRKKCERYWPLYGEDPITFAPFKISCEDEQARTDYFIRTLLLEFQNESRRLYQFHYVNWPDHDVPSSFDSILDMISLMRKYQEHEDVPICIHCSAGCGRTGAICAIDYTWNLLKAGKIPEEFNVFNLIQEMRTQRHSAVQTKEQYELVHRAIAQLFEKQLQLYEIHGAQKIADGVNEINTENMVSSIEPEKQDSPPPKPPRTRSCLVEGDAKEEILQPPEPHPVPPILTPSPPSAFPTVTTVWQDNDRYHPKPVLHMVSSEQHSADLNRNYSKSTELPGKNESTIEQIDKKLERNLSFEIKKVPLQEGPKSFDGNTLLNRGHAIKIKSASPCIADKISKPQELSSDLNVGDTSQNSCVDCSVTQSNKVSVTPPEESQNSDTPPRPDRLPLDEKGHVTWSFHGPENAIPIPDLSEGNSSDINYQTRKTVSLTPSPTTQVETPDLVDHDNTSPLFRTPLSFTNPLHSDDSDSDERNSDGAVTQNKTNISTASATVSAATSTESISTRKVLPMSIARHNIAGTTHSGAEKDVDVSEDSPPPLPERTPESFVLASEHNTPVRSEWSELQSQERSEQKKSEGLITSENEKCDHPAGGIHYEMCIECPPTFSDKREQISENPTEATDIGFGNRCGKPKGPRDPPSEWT
Kind of test: PTP inhibition assay (pNPP). The test is classed as biochemical.

The target of a further test is T4, TcPTP (Homo sapiens, UniProt P17706).
T4 sequence (P17706 1-415): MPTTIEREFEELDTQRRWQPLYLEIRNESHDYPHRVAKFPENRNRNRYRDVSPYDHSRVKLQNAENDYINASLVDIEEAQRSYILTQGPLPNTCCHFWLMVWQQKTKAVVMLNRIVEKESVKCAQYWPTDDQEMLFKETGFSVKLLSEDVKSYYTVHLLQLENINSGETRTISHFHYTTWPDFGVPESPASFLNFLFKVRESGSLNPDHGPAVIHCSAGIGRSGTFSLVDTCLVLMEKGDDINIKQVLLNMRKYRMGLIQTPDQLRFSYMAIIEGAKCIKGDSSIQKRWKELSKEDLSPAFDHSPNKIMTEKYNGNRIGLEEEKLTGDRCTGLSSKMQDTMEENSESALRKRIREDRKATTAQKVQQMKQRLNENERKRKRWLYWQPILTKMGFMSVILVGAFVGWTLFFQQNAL
The test is described as follows: PTP inhibition assay (pNPP). In kind it is biochemical.

Setting [1] is: pNPP at Km, read-out: IC50 TbPTP1.
[2] abbreviates: pNPP at Km, pH 7.0, 25° C., read-out: IC50 PEST.
Setting [3] is: pNPP at Km, pH 7.0, 25° C., read-out: IC50 TcPTP.

Values joined by “and” are separate entries in the source; they are usually repeats but may differ in a detail not shown here. Equal values may be shown once. Read-outs that look alike come from different tables or passages of the source. Bounds are passed on as bounds.

Chain of SHP1 (P29350 whole entry): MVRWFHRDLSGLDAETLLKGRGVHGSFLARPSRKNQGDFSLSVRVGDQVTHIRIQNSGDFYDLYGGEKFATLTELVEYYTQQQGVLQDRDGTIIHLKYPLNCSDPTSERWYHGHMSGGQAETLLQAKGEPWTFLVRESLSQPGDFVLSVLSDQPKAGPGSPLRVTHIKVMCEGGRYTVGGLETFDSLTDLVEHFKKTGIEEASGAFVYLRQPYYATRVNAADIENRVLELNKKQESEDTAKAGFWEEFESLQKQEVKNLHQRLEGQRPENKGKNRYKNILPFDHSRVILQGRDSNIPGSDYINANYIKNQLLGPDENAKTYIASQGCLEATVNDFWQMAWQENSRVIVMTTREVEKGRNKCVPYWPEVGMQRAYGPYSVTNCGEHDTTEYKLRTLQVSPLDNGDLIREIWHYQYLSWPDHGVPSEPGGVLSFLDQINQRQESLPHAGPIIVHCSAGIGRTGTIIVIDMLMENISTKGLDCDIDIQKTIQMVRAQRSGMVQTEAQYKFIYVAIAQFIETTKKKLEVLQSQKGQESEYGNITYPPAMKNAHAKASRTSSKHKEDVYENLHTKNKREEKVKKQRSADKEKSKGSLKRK

As usually defined, the IC50 is the concentration needed to halve the response being measured. As to `Cc1c(Br)cc(NC(=O)CS(=O)(=O)O)cc1Br`, the IC50 against SHP1, on SHP2, on TbPTP1 (setting [1]), at YopH and on PP5 was more than 100 µM throughout.

Take `O=C(CS(=O)(=O)O)Nc1ccc2nc(C(F)(F)F)[nH]c2c1`: the IC50 against SHP1, at PEST (setting [2]), on SHP2, at TcPTP (setting [3]), at TbPTP1 (setting [1]) and against YopH was more than 100 µM throughout. At PP5, this compound gave a 50% inhibitory concentration (IC50) of more than 100 µM.

In the case of `O=C(CS(=O)(=O)O)Nc1cnc2ccccc2c1`, the IC50 against SHP1, on PEST (setting [2]), on SHP2, on TcPTP (setting [3]), at TbPTP1 (setting [1]) and against YopH was more than 100 µM each time. The compound further came in with an IC50 against PP5 of more than 100 µM.

As for `O=C(NCCNC(=O)C(c1ccccc1)S(=O)(=O)O)c1cccc(C(=O)c2ccccc2)c1` (stereo not shown) [Compound L319-02-A60], the IC50 on SHP1, on PEST (setting [2]), at SHP2, at TcPTP (setting [3]) and on TbPTP1 (setting [1]) was more than 200 µM throughout.

As to `O=C(NCc1ccc(NC(=O)C(c2ccccc2)S(=O)(=O)O)cc1)c1ccccc1-c1ccc(C(F)(F)F)cc1` (stereo not shown) [Compound L319-05-A64], the IC50 on PEST (setting [2]) was determined as 160 µM; at SHP2, 69 µM; at TcPTP (setting [3]), 96 µM; at TbPTP1 (setting [1]), 93 µM.

As to `CCCCc1ccc(NC(=O)C(=O)Nc2ccccc2NC(=O)C(c2ccccc2)S(=O)(=O)O)cc1` (stereo not shown) [Compound L319-21-M06], the IC50 on SHP1, at PEST (setting [2]), at SHP2, at TcPTP (setting [3]) and on TbPTP1 (setting [1]) was more than 50 µM each time.

As to `O=C(Nc1cccc(OCc2ccccc2)c1)C(=O)Nc1ccccc1NC(=O)C(c1ccccc1)S(=O)(=O)O` (stereo not shown) [Compound L319-21-M52], the IC50 against SHP1, on PEST (setting [2]), at SHP2, on TcPTP (setting [3]) and on TbPTP1 (setting [1]) was more than 50 µM in each case.

Regarding `Cc1c(Br)cc(NC(=O)C(c2ccccc2)S(=O)(=O)O)cc1Br` (stereo not shown) [Compound L319M34], the IC50 against SHP1 is 55.5 µM; at PEST (IC50 PEST), 42.3 µM; on PEST (pH 7, read-out: IC50 PEST), 72.3 µM; on SHP2, more than 100 µM; against TcPTP (IC50 TcPTP) it was more than 100 µM; against TbPTP1 (IC50 TbPTP1, pNPP at Km), more than 200 µM. For the same compound, the 50% inhibitory concentration (IC50) at YopH is more than 200 µM.

In the case of `O=C(Nc1ccc(OCc2ccccc2)c(Cl)c1)C(c1ccccc1)S(=O)(=O)O` (stereo not shown) [Compound L319M50], the IC50 against SHP1 was 53.2 µM; at PEST (setting [2]) it was 69.9 µM; on SHP2, more than 200 µM; on TcPTP (setting [3]) it was more than 100 µM; on TbPTP1 (setting [1]), more than 100 µM.

Consider `O=C(Nc1cccc(OCc2ccccc2)c1)C(c1ccccc1)S(=O)(=O)O` (stereo not shown) [Compound L319M52], for which the concentration for half-maximal inhibition (IC50) against SHP1 was > 200 µM and 62.3 µM; on PEST (setting [2]), 77 µM and 77.4 µM; at SHP2, more than 200 µM; at TcPTP (setting [3]) it was 170 µM and > 100 µM; on TbPTP1 (setting [1]) it was 118 µM and > 100 µM; on YopH, more than 200 µM. Besides, on PP5, the IC50 was more than 200 µM.

Turning to `O=C(Nc1ccc2nc(C(F)(F)F)[nH]c2c1)C(c1ccccc1)S(=O)(=O)O` (stereo not shown) [Compound L319M54], the IC50 against SHP1, at PEST (setting [2]), at SHP2, at TcPTP (setting [3]), on TbPTP1 (setting [1]) and against YopH was more than 200 µM throughout. This compound also had an IC50 against PP5 of more than 200 µM.

Regarding `O=C(Nc1ccc(N2CCOCC2)cc1)C(c1ccccc1)S(=O)(=O)O` (stereo not shown) [Compound L319M68], the IC50 at SHP1, at PEST (setting [2]), at SHP2, on TcPTP (setting [3]), on TbPTP1 (setting [1]) and on YopH was more than 200 µM in each case. On PP5, this compound showed an IC50 of more than 200 µM.

Regarding `O=C(Nc1cnc2ccccc2c1)C(c1ccccc1)S(=O)(=O)O` (stereo not shown) [Compound L319M88], the IC50 against SHP1, on PEST (setting [2]), on SHP2, at TcPTP (setting [3]), at TbPTP1 (setting [1]) and at YopH was more than 200 µM each time. This compound also displayed an IC50 against PP5 of more than 200 µM.

For the compound `O=C(Nc1ccc(-c2ccccc2)cc1)C(c1ccccc1)S(=O)(=O)O` (stereo not shown) [Compound L319N08], the IC50 on SHP1 was 64.6 µM; at PEST (IC50 PEST) it was 59.7 µM; on SHP2, more than 100 µM; at TcPTP (IC50 TcPTP), more than 200 µM; on TbPTP1 (setting [1]) it was more than 100 µM.

In the case of `O=C(Nc1nc2ccccc2s1)C(c1ccccc1)S(=O)(=O)O` (stereo not shown) [Compound L319N15], the IC50 at SHP1 is > 200 µM and 59.6 µM; on PEST (setting [2]), 43.5 µM; at SHP2, > 200 µM and > 100 µM and 160 µM; at TcPTP (setting [3]), more than 200 µM; at TbPTP1 (setting [1]), more than 200 µM; on YopH, more than 200 µM. Also, the IC50 against PP5 was more than 200 µM.

Regarding `O=C(C(c1ccccc1)S(=O)(=O)O)N1CCC(Cc2ccccc2)CC1` (stereo not shown) [Compound L319N46], the IC50 against SHP1, at PEST (setting [2]), on SHP2, on TcPTP (setting [3]), at TbPTP1 (setting [1]) and against YopH was more than 200 µM in each case. The compound further registered an IC50 against PP5 of more than 200 µM.

For `O=C(C(c1ccccc1)S(=O)(=O)O)N1CCC(c2ccc(Cl)c(Cl)c2)CC1` (stereo not shown) [Compound L319N47], the IC50 at SHP1 was determined as 66 µM; on PEST (setting [2]), 42 µM; at SHP2, 76 µM; on TcPTP (setting [3]), 160 µM; at TbPTP1 (setting [1]), 38 µM; on YopH, 160 µM. On PP5, this compound yielded an IC50 of more than 200 µM.

`O=C(C(c1ccccc1)S(=O)(=O)O)N1CCCC2CCCCC21` (stereo not shown) [Compound L319N53]: the IC50 against SHP1, at PEST (setting [2]), at SHP2, on TcPTP (setting [3]), at TbPTP1 (setting [1]) and against YopH was more than 200 µM each time. The IC50 against PP5 was more than 200 µM.

Consider `O=C(CS(=O)(=O)O)Nc1nc2ccc([N+](=O)[O-])cc2s1` [Compound L335N15-07], for which the half-inhibitory concentration (IC50) against SHP1, on PEST (setting [2]), at SHP2, at TcPTP (setting [3]), at TbPTP1 (setting [1]) and on YopH was more than 100 µM throughout. This compound yielded an IC50 on PP5 of more than 100 µM.

The values are drawn from patent US10494332B2, “Protein tyrosine phosphatases or SHP2 inhibitors and uses thereof” (Indiana University Research and Technology Corporation, priority 2015, dated 2019).
